The target in assay [1] is T1, CXCR3 (Homo sapiens, UniProt P49682).
T1 sequence (P49682 1-368): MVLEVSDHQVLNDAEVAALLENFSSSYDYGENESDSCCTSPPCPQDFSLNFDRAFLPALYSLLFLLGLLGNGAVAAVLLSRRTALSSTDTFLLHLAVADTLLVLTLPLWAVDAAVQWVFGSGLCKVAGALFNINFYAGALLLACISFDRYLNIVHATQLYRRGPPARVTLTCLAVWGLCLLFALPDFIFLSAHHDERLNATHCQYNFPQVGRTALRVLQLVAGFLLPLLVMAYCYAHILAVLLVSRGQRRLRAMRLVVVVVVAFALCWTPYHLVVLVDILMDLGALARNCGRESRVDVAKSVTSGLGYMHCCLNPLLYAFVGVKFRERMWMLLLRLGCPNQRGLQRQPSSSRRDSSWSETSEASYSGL
Briefly: CXCR3 Ca2+ mobilization (FLIPR), stable hCXCR3-CHO cell line, I-TAC stimulated. It counts as cell-based. Further details: host or cells: CHO cells stably expressing hCXCR3. The settings on record: hCXCR3-CHO cells, I-TAC 100 nM stimulated Ca2+ response; read-out: Ca-ITAC. An outline of the steps: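 CHO cells stably expressing hCXCR3, grown 18 hours after plating, loaded with calcium indicator dye 60 minutes; compounds equilibrated 20 minutes at room temperature. Fluorescence change evoked by 100 nM I-TAC read on FLIPR; activity expressed as percent of I-TAC response without compound (100%).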
In general terms: Calcium flux is commonly read through the fluorescence of an indicator in the cells.

The target in assay [2] is T1, CXCR3. The assay is described as follows: Chemotaxis assay IP10, L1.2 recombinant cells expressing hCXCR3. The settings on record: L1.2 hCXCR3 cells, IP10 around 0.3 nM, 4 hours. It is filed as cell-based. The procedure:
Human CXCR3 cDNA was amplified by PCR from a human cells cDNA library (Clontech) and subcloned into pcDNA3.1 (Invitrogen). Murine pre-B L1.2 cells were transfected with hCXCR3-pcDNA3.1 and were grown at 37° C., 5% CO2 in RPMI 1640 medium (Invitrogen, USA) supplemented with 5% heat inactivated fetal calf serum (Cancerra, Australia), 2 mM glutamine (Invitrogen), 50 units ml−1 penicillin, 50 μml−1 streptomycin. Stable transfectant clonal populations were selected using 800 μg/ml geneticin.
L1.2 recombinant cells expressing the receptor hCXCR3 were maintained in culture in RPMI 1640 (invitrogen), 5% Foetal Bovine Serum (invitrogen), 2 mM glutamine(invitrogen), 50 u/ml penicillin/streptomycin (invitrogen), at 37° C.-5% CO2—in an H2O saturated incubator. In order to stimulate the expression of the receptor, cells were incubated overnight with 5 mM butyric acid (Sigma)
This mix of cells/compounds was then incubated at 37° C.-5% CO2—in an H2O saturated incubator during 30 minutes. Cells were then dispensed as a drop on each corresponding wells of the chemotaxis system. Cell migration was then induced at 37° C.-5% CO2—in an H2O incubator during 4 hours. Filters were then removed and cells that had migrated were transferred in a black plate (Costar). The plates were stored overnight at −80° C. Cell migration ratio was calculated using the cyquant dye (Molecular Probes-C7026).

Consider `CCOc1ccc(S(=O)(=O)N(Cc2ccc(C(=O)NC3(c4ccccc4)CC3)cc2)Cc2cccnc2)cc1` [Example 93], for which the IC50 at CXCR3 [1] came out at 30 nM; at CXCR3 [2] it was 0.04 µM. In the case of `O=C(Cc1cccc(Cl)c1)Nc1ccc(CN(Cc2ccccn2)S(=O)(=O)c2ccc(Cl)cc2)cc1` [Example 160], the IC50 at CXCR3 [1] worked out at 100 nM; at CXCR3 [2] it was 0.12 µM. Taken in the same sequence, the figures for `N#Cc1ccc(S(=O)(=O)N(Cc2ccc(C(=O)NC3(c4cccc(C#N)c4)CC3)cc2)Cc2ccccn2)cc1` [Example 101] were 60 nM and 0.19 µM. For the molecule `O=C(NS(=O)(=O)c1cccc(F)c1)c1ccc(CN(Cc2ccccn2)S(=O)(=O)c2ccc(Cl)cc2)cc1` [Example 51, N-(3-fluorobenzenesulfonyl)-4-{[[(4-chlorophenyl)sulfonyl](pyridin-2-yl-methyl)amino]methyl}benzamide], the IC50 at CXCR3 [1] turned out to be 131 nM; on CXCR3 [2], 0.339 µM. Taken in the same sequence, the figures for `CCOc1ccc(S(=O)(=O)N(Cc2ccc(C(=O)O)cc2)Cc2cccnc2)cc1` [Example 157] were 1620 nM and 4.18 µM. In the case of `O=S(=O)(c1ccc(Cl)cc1)N(Cc1ccc(-c2nnn[nH]2)cc1)Cc1cc2ccccc2cn1` [Example 76, 4-chloro-N-(isoquinolin-3-ylmethyl)-N-[4-(2H-tetrazol-5yl)benzyl]benzene sulfonamide], the IC50 on CXCR3 [1] came out at 300 nM; at CXCR3 [2], 0.911 µM. Turning to `CC(CNC(=O)c1ccc(CN(Cc2ccccn2)S(=O)(=O)c2ccc(C#N)cc2)cc1)c1ccccc1` (stereo not shown) [Example 98], the IC50 on CXCR3 [1] came out at 400 nM; on CXCR3 [2] it was 0.16 µM.

With `O=S(=O)(c1ccc(Cl)cc1)N(Cc1ccc(-c2nnn[nH]2)cc1)Cc1ccccc1Cl` [Example 63, 4-chloro-N-(2-chlorobenzyl)-N-[4-(2H-tetrazol-5-yl)benzyl]benzenesulfonamide], the results for the IC50 at CXCR3 [1] and on CXCR3 [2] were 415 nM and 0.548 µM, respectively. As for `COCCCS(=O)(=O)NC(=O)c1ccc(CN(Cc2ccccn2)S(=O)(=O)c2ccc(Cl)cc2)cc1` [Example 54, N-(3-methoxy-propane-1-sulfonyl)-4-{[[(4-chlorophenyl)sulfonyl](pyridin-2-yl-methyl)amino]methyl}benzamide], the IC50 at CXCR3 [1] amounted to 5600 nM; at CXCR3 [2], 3.83 µM. On the same counts, the results for `N#Cc1ccc(S(=O)(=O)N(Cc2ccc(C(=O)NCCc3cccc(Cl)c3)cc2)Cc2ccccn2)cc1` [Example 97] are 70 nM and 0.05 µM. `N#Cc1ccc(S(=O)(=O)N(Cc2ccc(C(=O)NCC3CC3)cc2)Cc2ccccn2)cc1` [Example 43]: the IC50 was found to be 4750 nM on CXCR3 [1] and 0.36 µM at CXCR3 [2]. Turning to `O=S(=O)(c1ccc(Cl)cc1)N(Cc1ccc(-c2nnn[nH]2)c(F)c1)Cc1ccccn1` [Example 56, 4-chloro-N-[3-fluoro-4-(1H-tetrazol-5-yl)benzyl]-N-(pyridin-2 ylmethyl)benzene sulfonamide], the IC50 on CXCR3 [1] was determined as 5300 nM; at CXCR3 [2] it was 1.16 µM. Take `O=S(=O)(c1ccc(Cl)cc1)N(Cc1ccc(-c2nnn[nH]2)cc1)Cc1ccccc1F` [Example 20, 4-chloro-N-(2-fluorobenzyl)-N-[4-(1H-tetrazol-5-yl)benzyl]benzene sulfonamide]: the IC50 on CXCR3 [2] was 0.47 µM. The same measure, in the same setting: the value for `Cc1noc(C)c1CN(Cc1ccc(-c2nnn[nH]2)cc1)S(=O)(=O)c1ccc(Cl)cc1` [Example 58, 4-chloro-N-[(3,5-dimethylisoxazol-4-yl)methyl]-N-[4-(2H-tetrazol-5-yl)benzyl]benzene sulfonamide] was 1.43 µM; that for `O=S(=O)(c1ccc(Cl)cc1)N(Cc1ccc(Cl)cc1)Cc1ccc(-c2nnn[nH]2)cc1` [Example 25, 4-chloro-N-(4-chlorobenzyl)-N-[4-(1H-tetrazol-5-yl)benzyl]benzenesulfonamide] was 0.882 µM; that for `O=S(=O)(c1ccc(Cl)cc1)N(Cc1ccc(-c2nnn[nH]2)cc1)Cc1ncco1` [Example 59, 4-chloro-N-(1,3-oxazol-2-ylmethyl)-N-[4-(2H-tetrazol-5-yl)benzyl]benzene sulfonamide] was 3.67 µM.

Source of the values: patent publication US20110028509A1, “Sulfonamides” (MERCK SERONO SA, priority 2008, published 2011).
